Values joined by “and” are separate entries in the source; they are usually repeats but may differ in a detail not shown here. Equal values may be shown once.
Tested on: not listed separately
Assay: logP by reversed-phase HPLC (EEC Directive 79/831 Annex V.A8)
Format: physicochemical
Details: method [a]: LC-MS, acidic range pH 2.7, 0.1% aqueous formic acid / acetonitrile, linear gradient 10% to 95% acetonitrile, C18 reversed phase
Procedure: The logP values were measured in accordance with EEC Directive 79/831 Annex V.A8 by HPLC (High Performance Liquid Chromatography) using reversed-phase columns (C 18) by the following methods:
[a] The LC-MS determination in the acidic range is effected at pH 2.7 with 0.1% aqueous formic acid and acetonitrile (contains 0.1% formic acid) as eluents; linear gradient from 10% acetonitrile to 95% acetonitrile.

Row | SMILES | logP
1 | CC(C)(C)C(O)(CSc1ccc(Cl)s1)c1cncs1 (stereo not drawn) [Compound 4] | logP 3.68^[a]; [M]^+ = 334.
2 | CC(C)(C)C(O)(CSCc1ccc(Cl)cc1Cl)c1cncs1 (stereo not drawn) [Compound 10] | logP 4.29^[a]; [M]^+ = 375.
3 | CC(C)(C)C(O)(CSc1ccc(Cl)cc1Cl)c1cncs1 (stereo not drawn) [Compound 11] | logP 3.96^[a]; [M]^+ = 361.
4 | Cc1ccc(SCC(O)(c2cncs2)C(C)(C)C)cc1 (stereo not drawn) [Compound 12] | logP 3.63^[a]; [M]^+ = 307.
5 | CC(C)Oc1ccc(SCC(O)(c2cncs2)C2(C)CCCCC2)cn1 (stereo not drawn) [Compound 16] | logP 4.70^[a]; [M]^+ = 393.
6 | CC(C)(C)C(O)(CSc1ccc(Cl)cc1)c1cncs1 (stereo not drawn) [Compound 17] | log p 3.64^[a]
7 | COc1ccc(SCC(O)(c2cncs2)C(C)(C)C)cc1 (stereo not drawn) [Compound 18] | log p 3.16^[a]
8 | CC(C)(C)c1ccc(SCC(O)(c2cncs2)C(C)(C)C)cc1 (stereo not drawn) [Compound 19] | log p 3.7^[a]
9 | CC(C)(C)C(O)(CSc1cccc(Br)c1)c1cncs1 (stereo not drawn) [Compound 20] | log p 3.74^[a]
10 | CC(C)(C)C(O)(CSc1ccccc1Br)c1cncs1 (stereo not drawn) [Compound 21] | log p 3.5^[a]
11 | Cc1ccc([S+]([O-])CC(O)(c2cncs2)C(C)(C)C)c(C)c1 (stereo not drawn) [Compound 23] | log p 2.92^[a]
12 | CC(C)C(O)(CSc1nncn1-c1c(F)cccc1F)c1cncs1 (stereo not drawn) [Compound 24] | log p 1.8^[a]
13 | CC(C)C(O)(CSc1nncn1-c1ccccc1)c1cncs1 (stereo not drawn) [Compound 25] | log p 1.76^[a]
14 | CC(C)(C)C(O)(CSC1CCCCC1)c1cncs1 (stereo not drawn) [Compound 26] | log p 4.17^[a]
15 | CC(C)(C)C(O)(CSc1ccccc1Br)c1cnc(Sc2ccccc2Br)s1 (stereo not drawn) [Compound 27] | log p 5.78^[a]
16 | Cc1ccc(SCC(O)(c2cncs2)C(C)(C)C)c(C)c1 (stereo not drawn) [Compound 28] | log p 4.02^[a]
17 | CC(C)C(O)(CSc1nncn1C1CCCCC1)c1cncs1 (stereo not drawn) [Compound 31] | log p 2.04^[a]
18 | CC(C)(C)C(O)(CSc1ccc2ccccc2c1)c1cncs1 (stereo not drawn) [Compound 35] | log p 3.92^[a]
19 | CC(C)(C)C(O)(CSc1cccc2ccccc12)c1cncs1 (stereo not drawn) [Compound 36] | log p 3.87^[a]

Row | SMILES | logP
20 | Cc1ccc(SCC(O)(c2cncs2)C(C)(C)C)cc1 (stereo not drawn) [Compound 37] | log p 3.63^[a]
21 | CC(C)(C)C(O)(CSc1ccc(Cl)c(Cl)c1)c1cncs1 (stereo not drawn) [Compound 38] | log p 4.05^[a]
22 | CC(C)(C)C(O)(CSc1cccc(Oc2ccccc2)c1)c1cncs1 (stereo not drawn) [Compound 39] | log p 4.33^[a]
23 | CC(C)(C)C(O)(CSc1ccc(C(=O)NC2CC2)cc1Cl)c1cncs1 (stereo not drawn) [Compound 40] | log p 2.54^[a]
24 | COC(=O)c1ccc(SCC(O)(c2cncs2)C(C)(C)C)cc1 (stereo not drawn) [Compound 41] | log p 3.01^[a]
25 | CC(=O)c1ccccc1SCC(O)(c1cncs1)C(C)(C)C (stereo not drawn) [Compound 42] | log p 2.66^[a]
26 | CC(C)(C)C(O)(CSc1cc(C(F)(F)F)ccc1Cl)c1cncs1 (stereo not drawn) [Compound 43] | log p 4.02^[a]
27 | CC(C)(C)C(O)(CSc1ccc(-c2ccccc2)cc1)c1cncs1 (stereo not drawn) [Compound 44] | log p 4.39 ^[a]
28 | CCOC(=O)c1ccc(SCC(O)(c2cncs2)C(C)(C)C)c(C)c1 (stereo not drawn) [Compound 45] | log p 3.7 ^[a]
29 | CC(Oc1ccc(SCC(O)(c2cncs2)C(C)(C)C)cc1)C(C)(C)C (stereo not drawn) [Compound 46] | log p 5.53^[a]
30 | CC(C)(C)C(O)(CSc1ccc(F)cc1F)c1cncs1 (stereo not drawn) [Compound 47] | log p 3.26^[a]
31 | CC(C)(C)C(=O)Nc1ccc(SCC(O)(c2cncs2)C(C)(C)C)cc1 (stereo not drawn) [Compound 48] | log p 3.14^[a]
32 | CC(=O)c1ccc(SCC(O)(c2cncs2)C(C)(C)C)c(Cl)c1 (stereo not drawn) [Compound 49] | log p 2.91^[a]
33 | CC(C)(C)C(O)(CSc1ccc(F)c(F)c1)c1cncs1 (stereo not drawn) [Compound 50] | log p 3.3^[a]
34 | CSc1ccc(SCC(O)(c2cncs2)C(C)(C)C)cc1 (stereo not drawn) [Compound 51] | log p 3.59^[a]
35 | CCOC(=O)c1ccc(SCC(O)(c2cncs2)C(C)(C)C)cc1 (stereo not drawn) [Compound 52] | log p 3.41^[a]
36 | CC(C)(C)C(O)(CSc1ccc(C(=O)c2ccccc2)cc1)c1cncs1 (stereo not drawn) [Compound 53] | log p 3.66^[a]
37 | CC(=O)Nc1cccc(SCC(O)(c2cncs2)C(C)(C)C)c1 (stereo not drawn) [Compound 54] | log p 2.15^[a]
38 | CCc1cccc(C)c1SCC(O)(c1cncs1)C(C)(C)C (stereo not drawn) [Compound 55] | log p 4.41^[a]

Row | SMILES | logP
39 | CCc1cccc(CC)c1SCC(O)(c1cncs1)C(C)(C)C (stereo not drawn) [Compound 56] | log p 4.78^[a]
40 | CC(C)(C)C(O)(CSc1cc(C(F)(F)F)cc(C(F)(F)F)c1)c1cncs1 (stereo not drawn) [Compound 58] | log p 4.37^[a]
41 | CC(C)(C)C(O)(CSc1cc(Cl)cc(Cl)c1)c1cncs1 (stereo not drawn) [Compound 59] | log p 4.18^[a]
42 | CC(C)(C)C(O)(CSc1cccc(Cl)c1Cl)c1cncs1 (stereo not drawn) [Compound 60] | log p 3.76^[a]
43 | CC(C)(C)C(O)(CSc1cccc(C(F)(F)F)c1)c1cncs1 (stereo not drawn) [Compound 61] | log p 3.74^[a]
44 | CC(C)(C)C(O)(CSc1cc(Cl)c(Cl)cc1Cl)c1cncs1 (stereo not drawn) [Compound 62] | log p 4.41^[a]
45 | Cc1cccc(SCC(O)(c2cncs2)C(C)(C)C)c1 (stereo not drawn) [Compound 63] | log p 3.57^[a]
46 | Cc1ccccc1SCC(O)(c1cncs1)C(C)(C)C (stereo not drawn) [Compound 64] | log p 3.52^[a]
47 | CC(C)(C)C(O)(CSc1ccc(F)cc1)c1cncs1 (stereo not drawn) [Compound 65] | log p 3.21^[a]
48 | CC(=O)Nc1ccc(SCC(O)(c2cncs2)C(C)(C)C)cc1 (stereo not drawn) [Compound 66] | log p 2.13^[a]
49 | COC(=O)c1ccccc1SCC(O)(c1cncs1)C(C)(C)C (stereo not drawn) [Compound 67] | log p 2.95^[a]
50 | Cc1cc(C)cc(SCC(O)(c2cncs2)C(C)(C)C)c1 (stereo not drawn) [Compound 68] | log p 4.06^[a]
51 | CCc1ccccc1SCC(O)(c1cncs1)C(C)(C)C (stereo not drawn) [Compound 69] | log p 3.9^[a]
52 | Cc1ccc(C)c(SCC(O)(c2cncs2)C(C)(C)C)c1 (stereo not drawn) [Compound 70] | log p 3.98^[a]
53 | CC(C)(C)C(O)(CSc1ccccc1Cl)c1cncs1 (stereo not drawn) [Compound 71] | log p 3.37^[a]
54 | CC(C)(C)C(O)(CSc1cccc(Cl)c1)c1cncs1 (stereo not drawn) [Compound 72] | log p 3.59^[a]
55 | CC(C)(C)C(O)(CSc1ccccc1)c1cncs1 (stereo not drawn) [Compound 73] | log p 3.8^[a]
56 | CC(C)(C)C(O)(CSc1cc(Cl)ccc1Cl)c1cncs1 (stereo not drawn) [Compound 74] | log p 3.83^[a]

Tested on: Alternaria solani
Assay: Alternaria test (tomato) / protective
Format: in vivo
Details: 500 ppm active ingredient, protective spray on young tomato plants, evaluation 7 days after inoculation; 0% = control, 100% = no infection
Procedure: Alternaria Test (Tomato)/Protective
(§1) • Solvent: 49 parts by weight of N,N-dimethylformamide • Emulsifier: 1 part by weight of alkylaryl polyglycol ether
To produce an appropriate active ingredient formulation, 1 part by weight of active ingredient is mixed with the specified amounts of solvent and emulsifier, and the concentrate is diluted with water to the desired concentration. To test for protective activity, young tomato plants are sprayed with the active ingredient formulation at the stated application rate. One day after the treatment, the plants are inoculated with a spore suspension of Alternaria solani and are then left to stand at 100% relative humidity and 22° C. for 24 h. Subsequently, the plants are left to stand at 96% relative air humidity and a temperature of 20° C. Evaluation follows 7 days after the […]. 0% means an efficacy which corresponds to that of the control, whereas an efficacy of 100% means that no infection is observed.

Row | SMILES | efficacy
57 | CC(C)(C)C(O)(CSc1ccc(I)cc1)c1cncs1 (stereo not drawn) [Compound 2] | 86%
58 | CC(C)(C)C(O)(CSc1ccc(Cl)cc1Cl)c1cncs1 (stereo not drawn) [Compound 11] | 99%
59 | CC1(C(O)(CSc2ccc(I)cc2)c2cncs2)CCCCC1 (stereo not drawn) [Compound 13] | 99%
60 | CC(C)Oc1ccc(SCC(O)(c2cncs2)C2(C)CCCCC2)cn1 (stereo not drawn) [Compound 16] | 94%
61 | CC(C)(C)C(O)(CSc1ccc(Cl)cc1)Cc1cncs1 (stereo not drawn) [Compound 34] | 99%
62 | CC(C)(C)C(O)(CSc1ccc(Cl)c(Cl)c1)c1cncs1 (stereo not drawn) [Compound 38] | 75%
63 | CC(C)(C)C(O)(CSc1ccc(-c2ccccc2)cc1)c1cncs1 (stereo not drawn) [Compound 44] | 100%
64 | CC(C)(C)C(O)(CSc1cccc(Cl)c1Cl)c1cncs1 (stereo not drawn) [Compound 60] | 94%

Tested on: Sphaerotheca fuliginea
Assay: Sphaerotheca test (cucumber) / protective
Format: in vivo
Details: 500 ppm active ingredient, protective spray on young cucumber plants, evaluation 7 days after inoculation; 0% = control, 100% = no infection
Procedure: Sphaerotheca Test (Cucumber)/Protective
as §1
To produce an appropriate active ingredient formulation, 1 part by weight of active ingredient is mixed with the specified amounts of solvent and emulsifier, and the concentrate is diluted with water to the desired concentration. To test for protective activity, young cucumber plants are sprayed with the formulation of active ingredient at the stated application rate. 1 day after the treatment, the plants are inoculated with a spore suspension of Sphaerotheca fuliginea. The plants are then placed in a greenhouse at 70% relative air humidity and a temperature of 23° C. Evaluation follows 7 days after the inoculation. 0% means an efficacy which corresponds to that of the control, whereas an efficacy of 100% means that no infection is observed.

Row | SMILES | efficacy
65 | CC(C)(C)C(O)(CSc1ccc(I)cc1)c1cncs1 (stereo not drawn) [Compound 2] | 95%
66 | CC(C)C(O)(CSc1ccc(I)cc1)c1cncs1 (stereo not drawn) [Compound 6] | 80%
67 | CC(C)(C)C(O)(CSc1ccc(Cl)cc1Cl)c1cncs1 (stereo not drawn) [Compound 11] | 80%
68 | CC1(C(O)(CSc2ccc(I)cc2)c2cncs2)CCCCC1 (stereo not drawn) [Compound 13] | 89%
69 | CC(C)(C)C(O)(CSc1ccc(Cl)c(Cl)c1)c1cncs1 (stereo not drawn) [Compound 38] | 80% and 90%

Reference: patent US8445691B2, “Heterocyclic thiosubstituted alkanol derivatives” (Bayer CropScience AG, priority 2010, dated 2013)
